Where “and” joins values, the source holds several entries; their conditions need not be identical. Equal values may be shown once.
Test system: NCI-H1568 tumour xenograft
Assay: NCI-H1568 xenograft tumour growth
Assay type: in vivo, mouse
Settings: for Tumor volume: qd, individual animals; for TGI: NCI-H1568 xenograft, day 17
Method: To establish subcutaneous tumours, mice were injected with 5 × 10^6 NCI-H1568 in PBS with 5% FCS or with 1 × 10^7 A549 cells in PBS with 5% FCS. Tumour diameters were measured with a caliper three times a week. The volume of each tumour (in mm^3) was calculated according to the formula [tumour volume = length × diameter^2 × π/6]. To monitor side effects of treatment, mice were inspected daily for abnormalities and body weight was determined daily after the start of treatment. Animals were sacrificed when the tumours reached a size of 1500 mm^3. Mice were randomised into treatment groups when the average tumour size reached ~210–220 mm^3. Group sizes were calculated individually for each tumour model based on tumour growth during model establishment experiments. A power analysis was performed using a sample size calculator (https://www.stat.ubc.ca/~rollin/stats/ssize/n2.html). For both models used in the study, 10 mice per group were used for each experiment. All administrations were dosed with 10 ml/kg (s.c. and oral). Control mice were dosed subcutaneously with 10% HP-β-CD in 50% Ringer solution and orally with 15% HP-β-CD, that means the control mouse treatment was corresponding to the solvent of the compounds. Compound 6 was dosed subcutaneously either in a d1-4 q3d, d6-8 q2d, d11-13 q2d treatment (Treatment 1) or a q3 or 4d treatment (Treatment 2).
For the evaluation of the statistical significance of tumour growth inhibition, a one-tailed nonparametric Mann-Whitney-Wilcoxon U-test was performed, based on the hypothesis that an effect would only be measurable in one direction (i.e. expectation of tumour inhibition but not tumour stimulation). Analysis was performed on the day indicated for each experiment. The p values obtained from the U-test were adjusted using the Bonferroni-Holm correction. By convention, p values ≤0.05 indicate significance of differences.

## Cc1ncsc1-c1ccc([C@H](CCCCCN2CCC(c3ccc4c(c3)n(C3CCCC3)c3nc(=O)c5c(Br)cccc5n43)CC2)NC(=O)[C@@H]2C[C@@H](O)CN2C(=O)[C@@H](NC(=O)C2(F)CC2)C(C)(C)C)cc1 [compound 11]
30 mg/kg, Day 8
  Tumor volume: 349.89 mm3 and 236.13 mm3 and 336.08 mm3 and 316.23 mm3 and 320.2 mm3 and 407.12 mm3 and 452.47 mm3 and 403.17 mm3 and 435.99 mm3 and 529.54 mm3
30 mg/kg, Day 10
  Tumor volume: 411.87 mm3 and 252.06 mm3 and 344.92 mm3 and 322.48 mm3 and 362.94 mm3 and 435.47 mm3 and 364.71 mm3 and 506.51 mm3 and 466.2 mm3 and 503.81 mm3
30 mg/kg, Day 13
  Tumor volume: 502.78 mm3 and 248.86 mm3 and 360.62 mm3 and 361.29 mm3 and 382.81 mm3 and 518.2 mm3 and 443.39 mm3 and 514.01 mm3 and 521.41 mm3 and 705.33 mm3
30 mg/kg, Day 15
  Tumor volume: 496.47 mm3 and 228.27 mm3 and 504.98 mm3 and 354.71 mm3 and 479.1 mm3 and 517.42 mm3 and 432.15 mm3 and 457.1 mm3 and 602.75 mm3 and 762.29 mm3
30 mg/kg, Day 17
  Tumor volume: 650.01 mm3 and 225.32 mm3 and 455.8 mm3 and 341.13 mm3 and 487.7 mm3 and 435.26 mm3 and 381.47 mm3 and 461.01 mm3 and 569.17 mm3 and 686.8 mm3
100 mg/kg, Day 8
  Tumor volume: 173.57 mm3 and 358.5 mm3 and 211.9 mm3 and 263.4 mm3 and 447.51 mm3 and 347.41 mm3 and 368.98 mm3 and 478.34 mm3 and 381.06 mm3 and 544.49 mm3
100 mg/kg, Day 10
  Tumor volume: 207.49 mm3 and 318.53 mm3 and 166.3 mm3 and 272.68 mm3 and 439.29 mm3 and 419.1 mm3 and 347.63 mm3 and 427.12 mm3 and 399.48 mm3 and 552.76 mm3
100 mg/kg, Day 13
  Tumor volume: 196.26 mm3 and 416.62 mm3 and 227.85 mm3 and 452.58 mm3 and 404.81 mm3 and 268.98 mm3 and 439.16 mm3 and 468.07 mm3 and 536.7 mm3
100 mg/kg, Day 15
  Tumor volume: 224.98 mm3 and 458.86 mm3 and 260 mm3 and 554.09 mm3 and 490.11 mm3 and 263.77 mm3 and 439.21 mm3 and 536.89 mm3 and 543.63 mm3
100 mg/kg, Day 17
  Tumor volume: 221.9 mm3 and 357.16 mm3 and 324.28 mm3 and 608.34 mm3 and 580.36 mm3 and 307.51 mm3 and 368.83 mm3 and 566.83 mm3 and 599.71 mm3
100 mg/kg, Day 20
  Tumor volume: 230.91 mm3 and 452.52 mm3 and 264.14 mm3
30 mg/kg p.o. daily
  TGI: 64%
100 mg/kg p.o. daily
  TGI: 76%
